According to publication PMC10029155, “Harnessing protein sensing ability of electrochemical biosensors via a controlled peptide receptor–electrode interface” (Journal of Nanobiotechnology, 2023):

What was measured:
cathepsin B [1] = molecular target: T1, cathepsin B (Homo sapiens, UniProt P07858); test: SWV electrochemical binding to cathepsin B (relative current change, binding constant); conditions: for relative binding affinity to cathepsin B (specificity): 125 nM protein, peptide 50 μM or phage ~10^12 PFU/mL immobilized
T1 construct: Cathepsin B proteins, purified from human liver (~ 27.5 kDa, > 95% purity); purchased ENZO (NY, USA); host or cells: purified from human liver
Experimental: A conventional three-electrode system including an Au working electrode (diameter: 5 mm, surface area: 19.6 mm^2), a Pt counter electrode, and an Ag/AgCl reference electrode, was used for the electrochemical measurements. The EIS, CV, and SWV measurements were conducted in the presence of 2.5 mM ferro/ferricyanide in 1 M KNO3 using a CHI 660E instrument (CH Instruments, Austin, TX, USA) at 25 °C. The EIS measurements were carried out by applying a 10 mV signal with a frequency ranging from 0.01 Hz to 100 kHz. The CV tests were performed between − 0.6 and 0.6 V (scan range) at a scan rate of 100 mVs^−1. The SWV tests were carried out in the potential range of − 0.4 to 0.6 V with an amplitude of 5 mV, frequency of 10 Hz, and a scan interval of 4 mV. The relative current change (ΔI%) was obtained by considering that the peak current decreased after the immobilization of the peptides and/or phages and cathepsin B protein interaction using the following equation:1 ΔI%=I0-I/I0×100 where I0 refers to phage-on-a-sensor, peptide-on-a-sensor, or peptide-on-a-AuNPs/MXene sensor and/or peptide oxidation current before cathepsin B introduction, and I refers to Au-protein oxidation current after cathepsin B introduction.

cathepsin S (CTSS) = test: SWV specificity test against CTSS; assay type: binding; conditions: 125 nM protein
Experimental: (§1) A conventional three-electrode system including an Au working electrode (diameter: 5 mm, surface area: 19.6 mm^2), a Pt counter electrode, and an Ag/AgCl reference electrode, was used for the electrochemical measurements. The EIS, CV, and SWV measurements were conducted in the presence of 2.5 mM ferro/ferricyanide in 1 M KNO3 using a CHI 660E instrument (CH Instruments, Austin, TX, USA) at 25 °C. The EIS measurements were carried out by applying a 10 mV signal with a frequency ranging from 0.01 Hz to 100 kHz. The CV tests were performed between − 0.6 and 0.6 V (scan range) at a scan rate of 100 mVs^−1. […]
(§2) The electrochemical response of the phage sensor for cathepsin B detection was evaluated by the specificity analysis of the developed phage. […] The relative binding affinity of the phage-on-a-sensor with different phage concentrations was measured. […] The binding constants of the developed phage sensor and the relative current change (ΔI%) with different cathepsin B concentrations were measured by SWV.
(§3) To select potential high-affinity peptides from the phage clones, the five synthetic peptides were immobilized on the Au electrode via streptavidin–biotin and MUA-EDC/NHS coupling methods. Each preparation step of the peptide sensor was recorded using CV, EIS, and SWV (Additional file 1: Fig. S3a–c), and the relative binding affinities for cathepsin B were measured by SWV. […]

cathepsin L1 (CTSL1) = test: SWV specificity test against CTSL1; assay type: binding; conditions: 125 nM protein
Experimental: as §1, §2, §3

BSA = test: SWV specificity test against BSA (control); assay type: binding; conditions: 125 nM protein, negative control protein
Experimental: as §1, §2, §3

cathepsin B [2] = molecular target: T1, cathepsin B; test: ELISA binding of peptide-displaying phage clones to immobilized biotinylated cathepsin B; conditions: 405 nm
Experimental: A 96 well streptavidin-coated microplate was washed three times with PBS, and the biotinylated cathepsin B was immobilized on it with mild shaking at 25 °C for 1 h. The unbound proteins were removed and blocked with a blocking buffer (5% BSA in NaHCO3) at 25 °C for 1 h. The wells were washed six times with 0.1% PBST, and 100 µL of the amplified phages (10^11 PFU/mL), i.e., the capture receptors, were added and incubated for 1 h at 25 °C. After washing six times with PBST again, the HRP-conjugated anti-M13 monoclonal antibodies (1:5000 dilution with blocking buffer), i.e., the detecting antibodies, were added and incubated at 25 °C for 1 h. The residual solution was discarded, and the microplate was washed again with the same buffer. Freshly prepared HRP substrate (ABTS) was added, and the absorbance was measured at 405 nm using a Multiskan FC microplate photometer (Thermo Scientific, Waltham, MA, USA).
The binding affinities of the selected phage clones for the immobilized cathepsin B were tested by ELISA. For these experiments, 250 nM of cathepsin B or the same amount of BSA as a negative control was immobilized on a well, followed by 10^11 PFU/mL of phage addition. The relative binding affinity of each phage was detected using HRP-conjugated M13 antibodies. […] The CTSB 4-1 clone was the only phage with a high binding affinity to cathepsin B, motivating further characterization of its binding interaction to confirm its specific binding to cathepsin B with increasing cathepsin B concentration (Fig. 2c).

Row | Sequence | relative binding affinity to cathepsin B (specificity) (cathepsin B [1]) | relative binding affinity to CTSS (specificity) (cathepsin S (CTSS)) | relative binding affinity to CTSL1 (specificity) (cathepsin L1 (CTSL1)) | relative binding affinity to BSA (specificity) (BSA) | relative binding affinity for cathepsin B (ELISA) (cathepsin B [2]; 250 nM cathepsin B immobilized, 10^11 PFU/mL phage, HRP-conjugated anti-M13 antibody, ABTS, 25 °C, 1 h, triplicate) | dose response of binding with cathepsin B concentration (cathepsin B [2]; cathepsin B 3.906 to 250 nM, ELISA) | SC50 (cathepsin B [2]; cathepsin B 6.25 to 250 nM, ELISA, printed in picture Fig. 2c) [nM] | relative binding affinity for all the tested proteins, comparison between peptides (cathepsin B [1]; 125 nM cathepsin B, CTSS, CTSL1 or BSA, peptide 50 μM)
1 | HRHRRHRHRKHHK - biotin [CTSB BP4] | much lower binding affinity for cathepsin B than for CTSB BP3 | non-specific binding affinity | non-specific binding affinity | non-specific binding affinity | – | – | – | –
2 | WDMWPSMDWKAE [CTSB 4-1, M13 phage clone displaying …, identified in four rounds of the biopanning] | – | – | – | – | strong cathepsin B binding | dose-dependent binding affinity with increasing cathepsin B concentration | 44.27 | –
3 | WDMWPSMDWKAEK - biotin [CTSB BP1] | did not bind to cathepsin B | – | – | – | – | – | – | comparable to those of CTSB BP2 and CTSB BP5
